Measurements from US6410037B1, “Anti-pruritic compositions” (Roche Consumer Health AG, priority 1999, dated 2002).

Experiments:
[1] = tested on: peritoneal mastocytes of rat; assay: Histamine release by peritoneal mastocytes of rat stimulated by substance P (spectrofluorimetry with OPT); format: cell-based; details: 10 μg/ml Ca-panthothenate and 7.5 μg/ml glycine, taken separately or together; substance P 10 μM
Procedure: Peritoneal mastocytes of rat were incubated with the test products and the substance P for 2 minutes at 37° C. in the following medium: sodium phosphate buffer 4 mM; potassium phosphate buffer 2.7 mM; NaCl 0.145 M; KCl 2.7 mM; CaCl2 0.9 mM; BSA (bovine serum albumin 0.175% (w/v). At the end of the incubation, histamine released by the mastocytes was quantified by spectrofluorimetry with ortho-phthalaldehyde (OPT) (R. Hakanson, A. I. Ronnberg and K. Sjolund, Analy. Biochem., 47,1972, pp. 356-370). The measurements were carried out by means of a multiplate spectrofluorimeter (Cytofluor 2350, MILLIPORE). Data groups (control and treated groups) were compared using a one-way analysis of variance (ANOVA 1, p<0.05), following by a Dunnett' test (p<0.05).

human skin tissue = assay: Histamine release by human skin discs stimulated by substance P (ELISA); format: cell-based
Procedure: Test were carried out on peritoneal mastocytes of rat stimulated by the substance P (10 μM), or on human skin tissue.
The skin tissue assay system was prepared from normal adult skin collected after abdominal plastic surgery. The subject was a person (subject M1085). The skin tissue specimen was rinsed in Krebs bicarbonate solution consisting of: NaCl 118 mM; KCl 5.4 mM; NaH2PO4 1 mM; MgSO4 1.2 mM, CaCl2 1.9 mM; NaHCO3 25 mM and D-glucose 11.1 mM. Skin discs of about 8 mm of diameter were performed. Skin discs were cultured in RPMI 1640 medium supplemented with penicillin (100 UI/ml), streptomycin (110 μg/ml) and 2 mM glutamine. Skin discs were maintained at 37° C. in a humidified incubator under a 5% Co2/95% air atmosphere. Test products were incubated with the human skin discs and 100 μM of substance P for 2 hours at 37° C.
At the end of the incubation, histamine released by the human skin discs was quantified by ELISA (IMMUNOTECH). The results were expressed as pmoles of histamine released per gram of skin. Data groups (control and treated groups) were compared using a one-way analysis of variance (ANOVA 1, p<0.05), following by a Dunnett's test (p<0.05).

mastocytes = details: cited from earlier work

Compound | Inhibition of histamine release (in words) [1] | Effect of addition of glycine to Ca-pantothenate on inhibition of histamine release (in words) (human skin tissue; glycine 75 μg/ml added to Ca-pantothenate 100 μg/ml) | Histamine release by mastocytes (in words) (mastocytes) | Inhibition of histamine release (in words) (human skin tissue; already at a concentration of 25 μg/ml)
NCC(=O)O [Glycine] | do not act as inhibitors | further improves such inhibition | inhibits histamine release by mastocytes | –
calcium pantothenate [Ca-pantothenate] | do not act as inhibitors | – | – | acts as inhibitor of the histamine release
